Test results taken from PubChem BioAssay (NCI).
“And” between values parts separate entries of the source, which are not always exact repeats. Equal values may be shown once.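 Dose response: 5 concentrations. Exposure: 48 h. Format: 96-well plates. Endpoint: linear interpolation; highest concentration if not reached. At the GI50, growth is halved. TGI denotes the concentration required for complete inhibition of growth.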

What was measured:
Assay in all cases: NCI-60 cell line screen, 48 h
[1] = tested on: 786-0 renal
[2] = tested on: CAKI-1 renal
[3] = tested on: COLO 205 colon
[4] = tested on: HOP-62 NSCLC
[5] = tested on: MALME-3M melanoma
[6] = tested on: MDA-MB-231 breast
[7] = tested on: MDA-MB-435
[8] = tested on: NCI-H226 lung
[9] = tested on: OVCAR-3 ovarian
[10] = tested on: OVCAR-8 ovarian
[11] = tested on: RXF 393 renal
[12] = tested on: UACC-257 melanoma
[13] = tested on: UACC-62 melanoma

SMILES	TGI [1]	TGI [2]	TGI [3]	TGI [4]	TGI [5]	TGI [6]	TGI [7]	TGI [8]	TGI [9]	TGI [10]	TGI [11]	TGI [12]	TGI [13]	GI50 [2] [µM]	GI50 [6] [µM]	GI50 [8]	GI50 [9] [µM]	GI50 [11] [µM]	GI50 [12] [µM]	GI50 [13] [µM]
CC1(C)C=C(/C=N/Nc2ccc(Br)cc2)C(C#N)=C(O)C1(C#N)C#N	> 100 µM	95.4 µM	36.8 µM	> 100 µM	> 100 µM	> 100 µM	> 100 µM	> 100 µM	> 100 µM	> 100 µM	91.3 µM	> 100 µM	> 100 µM	–	–	–	–	–	–	–
CC1=CC2(O)OC3(CC2=C(C)C)C(C)CCC13 (stereo not given)	> 100 µM	> 100 µM	> 100 µM	> 100 µM	> 100 µM	> 100 µM	> 100 µM	> 100 µM	> 100 µM	> 100 µM	> 100 µM	> 100 µM	> 100 µM	–	–	–	–	–	–	–
CC(=O)NCC1(c2ccccc2)CCN(CC2COc3ccccc3O2)CC1 (stereo not given)	> 100 µM	> 100 µM	> 100 µM	> 100 µM	> 100 µM	> 100 µM	> 100 µM	> 100 µM	> 100 µM	> 100 µM	> 100 µM	> 100 µM	> 100 µM	–	–	–	–	–	–	–
CO[C@@](c1ccccc1)(c1nc(C#N)c(N)o1)C(F)(F)F	> 100 µM	> 100 µM	> 100 µM	> 100 µM	> 100 µM	> 100 µM	> 100 µM	> 100 µM	> 100 µM	> 100 µM	> 100 µM	> 100 µM	> 100 µM	–	–	–	–	–	–	–
CCC(CC)C(=O)OC[n+]1cccc(-c2c(COC(=O)NC(C)C)c(COC(=O)NC(C)C)c3n2CCC3)c1	> 100 µM	> 100 µM	> 100 µM	> 100 µM	> 100 µM	> 100 µM	> 100 µM	> 100 µM	> 100 µM	> 100 µM	> 100 µM	> 100 µM	> 100 µM	–	–	–	–	–	–	–
CCCCSC1=N/C(=C\c2ccco2)C(=O)N1	> 100 µM	> 100 µM	> 100 µM	> 100 µM	> 100 µM	> 100 µM	> 100 µM	> 100 µM	> 100 µM	> 100 µM	64.7 µM	> 100 µM	> 100 µM	–	–	–	–	–	–	–
CN(C)CCOC1(Cc2ccc(Cl)cc2Cl)CCC(C(C)(C)C)CC1 (stereo not given)	3.33 µM and 2.98 µM	4.35 µM and 10.6 µM	3.28 µM and 3.23 µM	3.06 µM and 3.32 µM	4.41 µM and 3.24 µM	8.16 µM and 3.34 µM	2.89 µM and 3.18 µM	5.13 µM and 10.7 µM	3.07 µM and 3.92 µM	3.59 µM and 3.74 µM	3.11 µM and 3.28 µM	3.75 µM and 3.24 µM	3.9 µM and 9.66 µM	5.18	3.39	2.19 µM and 4.67 µM	2.03	1.68	1.64	3.7
CC1(C)OC(=O)C(C)(C)OC1=O	> 100 µM	> 100 µM	> 100 µM	> 100 µM	> 100 µM	> 100 µM	> 100 µM	> 100 µM	> 100 µM	> 100 µM	> 100 µM	> 100 µM	> 100 µM	–	–	–	–	–	–	–
C[C@]12CC(c3ccccc3O1)C(C#N)C(=O)N2 (stereo not given in full)	> 100 µM	> 100 µM	> 100 µM	> 100 µM	> 100 µM	> 100 µM	> 100 µM	> 100 µM	> 100 µM	> 100 µM	> 100 µM	> 100 µM	> 100 µM	–	–	–	–	–	–	–
NC1=CC(C(=O)c2ccncc2)c2nc3ccccc3nc21 (stereo not given)	> 100 µM	> 100 µM	> 100 µM	> 100 µM	> 100 µM	> 100 µM	> 100 µM	> 100 µM	> 100 µM	> 100 µM	> 100 µM	> 100 µM	> 100 µM	–	–	–	–	–	–	–
Cc1cnc2[nH]c(-c3ccc(F)cc3)cc(=O)c2c1	> 100 µM	> 100 µM	> 52.7 µM	> 83.1 µM	> 100 µM	> 100 µM	12.6 µM	> 84.5 µM	> 78.3 µM	> 100 µM	> 100 µM	> 100 µM	> 100 µM	–	–	–	–	–	–	–
CC(=N/NC(=S)Nc1c(C)n(C)n(-c2ccccc2)c1=O)/C(C)=N\NC(=S)Nc1c(C)n(C)n(-c2ccccc2)c1=O	> 100 µM	> 100 µM	> 100 µM	> 100 µM	> 100 µM	> 100 µM	> 100 µM	> 100 µM	> 100 µM	> 100 µM	> 100 µM	> 100 µM	> 100 µM	–	–	–	–	–	–	–
COc1ccc(C2SC(N)=Nc3c2c(C)nn3C(=O)c2ccc(Cl)cc2)cc1 (stereo not given)	> 10 µM	> 10 µM	> 10 µM	> 10 µM	> 10 µM	> 10 µM	> 10 µM	> 10 µM	> 10 µM	> 10 µM	> 10 µM	> 10 µM	> 10 µM	–	–	–	–	–	–	–
CN(C)c1ccc(/C=C2\N=C(N/N=C/c3ccccc3)NC2=O)cc1	> 100 µM	> 100 µM	> 100 µM	> 100 µM	> 100 µM	> 100 µM	> 100 µM	> 100 µM	> 100 µM	72.8 µM	70.4 µM	> 100 µM	> 100 µM	–	–	–	–	–	–	–
CCOC(=O)c1cc(C2CCN(CC(C)CC)C2=S)c(C(=O)/C=C(/C)N)[nH]1 (stereo not given)	> 50 µM	> 50 µM	> 50 µM	> 50 µM	> 50 µM	> 50 µM	> 50 µM	> 50 µM	> 50 µM	> 50 µM	> 50 µM	> 50 µM	> 50 µM	–	–	–	–	–	–	–
CC1(C)C=[N+]([O-])C(C)(C)N1	> 100 µM	> 100 µM	> 100 µM	> 100 µM	> 100 µM	> 100 µM	> 100 µM	> 100 µM	> 100 µM	> 100 µM	> 100 µM	> 100 µM	> 100 µM	–	–	–	–	–	–	–
